Laboratory results published in patent publication US9415103B2, “Combination therapy to prevent DCIS formation and progression to breast cancer” (Yeda Research and Development Co. Ltd., priority 2011, dated 2016).

Assays:
MCF10A-HER2 spheroids = test: Morphogenesis assay in Matrigel: luminal filling and cleaved Caspase-3 staining by confocal microscopy; assay type: cell-based, human; settings: spheroids grown 4 days, then 10058-F4 1 μM, FIG. 4G; for luminal filling: LY-294002 2 μM or U0126 1 μM for up to 4 additional days, day 8; for Caspase-3 activation: LY-294002 2 μM or U0126 1 μM, imaged on day 6
[1] = system: Notch pathway genes in MCF10A-HER2 spheroids; settings: U0126 1 μM, up to five days, lumen-filled spheroids; FIG. 2C

In the case of CCc1ccc(/C=C2/SC(=S)NC2=O)cc1 [10058-F4], the luminal filling (MCF10A-HER2 spheroids) is reported as “significant inhibition” and the Caspase-3 activation (MCF10A-HER2 spheroids) is reported as “markedly enhanced”.
N#CC(=C(/N)Sc1ccccc1N)/C(C#N)=C(\N)Sc1ccccc1N [U0126] was tested, and the “transcriptional induction of the Notch pathway (qRT-PCR)” value [1] was “contributes to the transcriptional induction of the Notch pathway”, the luminal filling (MCF10A-HER2 spheroids) was “significant inhibition” and the Caspase-3 activation (MCF10A-HER2 spheroids) was “markedly enhanced”.
